Data as given in patent publication US6797824B2, “Certain 4-aminomethyl-2-substituted imidazole derivatives and 2-aminomethyl-4-substituted imidazole derivatives; new classes of dopamine receptor subtype specific ligands” (Neurogen Corporation, priority 1990, dated 2004).
Where a name gives a salt, the structure may show the parent alone.

Row | Compound | melting point [°C]
1 | c1ccc(CC2CCN(Cc3ncc(-c4ccccc4)[nH]3)CC2)cc1 (as salt: fumarate) [Compound 77, 4phenyl-2(5)-[(4-benzylpiperidin-1-yl)-methyl]imidazole] | 155 to 157
2 | COc1ccc(Br)cc1-c1ncc(CN(C)C)[nH]1 (as salt: hydrochloride) [Compound 1, 2-(5-bromo-2-methoxyphenyl)-4(5)-[(N,N-dimethyl)aminomethyl]-imidazole dihydrochloride] | 242 to 243
3 | COc1cc(Br)cc(-c2ncc(CN(C)C)[nH]2)c1OC (as salt: hydrochloride) [Compound 16, 2-(5-Bromo-2,3-dimethoxyphenyl)-4(5)-[(N,N-dimethyl)aminomethyl]-imidazole dihydrochloride] | 194
4 | COc1ccccc1N1CCN(Cc2cnc(-c3cccc(OC)c3OC)[nH]2)CC1 (as salt: hydrochloride) [Compound 21, 2-(2,3-Dimethoxyphenyl)-4(5)-[(4-(2-methoxyphenyl)-piperazin-1-yl)-methyl]-imidazole dihydrochloride] | 217 to 218
5 | COc1ccccc1N1CCN(Cc2cnc(-c3cccc(Cl)c3)[nH]2)CC1 (as salt: hydrochloride) [Compound 22, 2-(3-Chlorophenyl)-4(5)-[(4-(2-methoxyphenyl)-piperazin-1-yl)-methyl]-imidazole dihydrochloride] | 198 to 199
6 | c1ccc(CC2CCN(Cc3cnc(-c4ccccc4)[nH]3)CC2)cc1 (as salt: hydrochloride) [Compound 25, 2-Phenyl-4(5)-[(4-benzyl-piperidin-1-yl)methyl]-imidazole dihydrochloride] | 234 to 236
7 | c1ccc(-c2nc(CN3CCC(c4ccccc4)CC3)c[nH]2)cc1 (as salt: hydrochloride) [Compound 26, 2-Phenyl-4(5)-[(4-phenyl-piperidin-1-yl)-methyl]-imidazole dihydrochloride] | 238 to 240
8 | COc1ccc(Cl)cc1-c1ncc(CN2CCN(c3ccccc3OC)CC2)[nH]1 (as salt: hydrochloride) [Compound 43, 2-(5-Chloro-2-methoxyphenyl)-4(5)-[(4-(2-methoxyphenyl)-piperazin-1-yl)-methyl]-imidazole dihydrochloride] | 138 to 143
9 | COc1ccc(-c2ncc(CN3CCC(c4ccccc4)CC3)[nH]2)cc1 (as salt: hydrochloride) [Compound 47, 2-(4-Methoxyphenyl)-4(5)-[(4-phenyl-piperidin-1-yl)-methyl]-imidazole dihydrochloride] | 196 to 199
10 | COc1cccc(-c2ncc(CN3CCC(c4ccccc4)CC3)[nH]2)c1 (as salt: hydrochloride) [Compound 50, 2-(3-Methoxyphenyl)-4(5)[(4-phenyl-piperidin-1-yl)-methyl]-imidazole dihydrochloride] | 114 to 117
11 | CCc1ccc(OC)c(-c2ncc(CN3CCN(c4ccccc4OC)CC3)[nH]2)c1 (as salt: hydrochloride) [Compound 55, 2-(5-Ethyl-2-methoxyphenyl-4(5)-[(4-(2-methoxyphenyl)-piperazin-1-yl)-methyl]-imidazoledihydrochloride] | 61 to 64
12 | Fc1ccc(N2CCN(Cc3cnc(-c4ccccc4)[nH]3)CC2)cc1 (as salt: hydrochloride) [Compound 56, 2-Phenyl-4(5)-[(4(4-fluorophenyl)-piperazin-1yl-)methyl]imidazole dihydrochloride] | 64 to 68
13 | Fc1ccnc(N2CCN(Cc3c[nH]c(-c4ccccc4)n3)CC2)n1 (as salt: hydrochloride) [Compound 58, 2-Phenyl-4(5)-[(4(4-fluoro-2-pyrimidinyl)-piperazin-1yl)-methyl]imidazole dihydrochloride] | 188 to 190
14 | Cc1ccc(Cl)cc1N1CCN(Cc2cnc(-c3ccccc3)[nH]2)CC1 (as salt: hydrochloride) [Compound 60, 2-Phenyl-4(5)-[(4(5-chloro-2-methylphenyl)-piperazin-1yl-)-methyl]imidazole dihydrochloride] | 142 to 145
15 | CC(c1cnc(-c2ccccc2)[nH]1)N1CCC(Cc2ccccc2)CC1 (stereo not drawn) (as salt: hydrochloride) [Compound 91, 2-phenyl-4(5)-[1-((4-benzyl-piperidin-1-yl)-ethan-1-yl)]imidazole dihydrochloride salt] | 169 to 171
16 | Ic1nc(-c2ccccc2)[nH]c1CN1CCN(c2ncccn2)CC1 (as salt: hydroiodid) [Compound 90, 2-phenyl-5-iodo-4(5)-[(4-(2-pyrimidinyl)piperazin-1-yl)methyl]-imidazole hydroiodide salt] | 196 to 199
17 | Fc1ccccc1-c1nc(CN2CCC(c3ccccc3)CC2)c[nH]1 (as salt: maleate) [Compound 52, 2-(2-Fluorophenyl)-4(5)[(4-phenyl-piperidin-1-yl)-methyl]-imidazole dimaleate] | 142 to 144
18 | COc1ccccc1N1CCN(Cc2cnc(-c3ccccc3)[nH]2)CC1 [Compound 19, 2-phenyl-4(5)-[(4-(2-methoxyphenyl)-piperazin-1-yl)-methyl]imidazole] | 105 to 107
19 | COc1ccccc1N1CCN(Cc2cnc(-c3ccc(F)cc3)[nH]2)CC1 [Compound 20, 2-(4-Fluorophenyl)-4(5)-[(4-(2-methoxyphenyl)-piperazin-1-yl)-methyl]-imidazole] | 95 to 97
20 | Clc1ccc(N2CCN(Cc3cnc(-c4ccccc4)[nH]3)CC2)cc1Cl [Compound 61, 2-Phenyl-4(5)-[(4(3,4-dichlorophenyl)-piperazin-1yl-)methyl]imidazole] | 179 to 181
21 | c1ccc(CC2CCN(Cc3cnc(-c4cccc5ccccc45)[nH]3)CC2)cc1 [Compound 92, 2-(1-naphthyl)-4(5)-[(4-benzyl-piperidin-1-yl)-methyl]imidazole] | 81 to 83
22 | O=C(c1ccccc1)c1ncc(CN2CCN(c3ncccn3)CC2)[nH]1 [Compound 116, 2-(benzoyl)-4(5)-[(4-(2-pyrimidinyl)-piperazin-1-yl)-methyl]-imidazole] | 177 to 179
23 | O=C(/C=C/c1cnc(-c2ccccc2)[nH]1)N1CCN(c2ncccn2)CC1 [Compound 119, 2-phenyl-4(5)-[(4(2-pyrimidinyl)-piperazin-1-yl)-propen-1-oyl]-imidazole] | 235 to 236
24 | O=C(CCc1cnc(-c2ccccc2)[nH]1)N1CCN(c2ncccn2)CC1 [Compound 122, 2-phenyl-4(5)-[(4-(2-pyrimidinyl)-piperazin-1-yl)-propan-1-oyl]-imidazole] | 143 to 148
25 | c1ccc(-c2ncc(CCCN3CCN(c4ncccn4)CC3)[nH]2)cc1 [Compound 125, 2-phenyl-4(5)-[(4-(2-pyrimidinyl)-piperazin-1-yl)-propan-1-yl]-imidazole] | 133 to 135
26 | c1cnc(N2CCN(Cc3cnc(C4CCCCC4)[nH]3)CC2)nc1 [Compound 128, 2-cyclohexyl-4(5)-[(4-(2-pyrimidinyl)-piperazin-1-yl)-methyl]-imidazole] | 210 to 213
27 | c1ccc(-c2nc(-c3ccccc3)c(CN3CCN(c4ncccn4)CC3)[nH]2)cc1 [Compound 132, 2,5-diphenyl-4(5)-[(4-(2-pyrimidinyl)piperazin-1-yl)methyl]-imidazole] | 221 to 225
